# Measurements as given in patent publication US20120129787A1, “Modified oligopeptides with anticancer properties and methods of obtaining them” (priority 2010, published 2012).
# How the values were obtained:
# [1] = test system: benzidine skin sarcoma; assay: Anti-cancer activity on benzidine skin sarcoma in Barbados mice; type: in vivo; settings: mice with benzidine sarcoma
# Description: Study of the Anti-Cancer Activity of Anticanum on Benzidine Sarcoma. Before applying it to the silica gel, 7 ml of a solution of 2% benzidine and 0.9% sodium chloride was added until an opalescent suspension was formed (1 g silica gel for 5 ml NaCl solution). Twenty-five Barbados mice of both sexes with a weight of 18-20 g that were kept on a vivarium diet were administered benzidine and phorbol acetate immobilized on silica gel subcutaneously near the neck every three days. After two weeks, 18 animals had developed tumors of different sizes in the form of a small bump on the neck near the silica gel granulomas. Each group of animals was administered the corresponding compound parenterally at a dose of 100 mcg/kg weight twice a day for two weeks, beginning at 16 days after administration of the carcinogen.
# [2] = test system: HeLa cells; assay: Effect of MPs on HeLa cells: number of surviving cells versus concentration; type: cell-based
# Text: In establishing the minimum concentration of MPs that will slow the growth of cells, a comparison was made between the number of surviving cells and the concentration of MPs in the solution.
compound,measurement,setting,value
CC(=O)O[C@@]12CO[C@@H]1C[C@H](O)[C@@]1(C)C(=O)[C@H](O)C3=C(C)[C@@H](OC(=O)[C@H](O)[C@@H](NC(=O)OC(C)(C)C)c4ccccc4)C[C@@](O)([C@@H](OC(=O)c4ccccc4)[C@H]21)C3(C)C [Taxotere],"Weight of Animal, Before Treatment",[1],27 ± 2 g
same,"Number of live cells after incubation, %",[2]; dose 20 mcg/ml,93%
same,"Number of live cells after incubation, %",[2]; dose 40 mcg/ml,91%
same,"Number of live cells after incubation, %",[2]; dose 60 mcg/ml,0.12%
same,"Number of live cells after incubation, %",[2]; dose 100 mcg/ml,92%
same,"Number of live cells after incubation, %",[2]; dose 120 mcg/ml,101%
